Each structure is given as a SMILES string. pIC50: −log10 of the molar value.

The nature of data set [1]: Oral pharmacokinetic test in mice. To be noted: male, C57, mouse, in vivo, 10 mg/kg.
In another data set the target is JAK3 (Homo sapiens, UniProt P52333). The data set is described as follows: JAK3 kinase inhibitory activity test (HTRF). The format is biochemical. The conditions noted are these: JAK3 0.1 ng/μL, ATP 3 μM, substrate 1 μM, 3 h. (In general: In TR-FRET formats the signal depends on donor and acceptor labels being close together.)
The nature of another data set: in vivo. To be noted: male, C57, mouse, po.

For `N#CCC1(n2cc(-c3ncnc4[nH]ccc34)cn2)CCC(F)(F)CC1` [Compound 1], in data set [1], the AUC(0-inf) (commonly the area under the concentration-time curve extrapolated to infinity) came out at 2150 ng·h/mL; the AUC(0-t) (in general, exposure summed from dosing to a finite time, without extrapolation to infinity) was 2130 ng·h/mL; the highest level (Cmax) was 1480 ng/mL; the MRT inf (in general, a mean duration of stay, worked out from the concentration-time curve) worked out at 81 min. In data set [1], the MRT last (commonly the average time that molecules of a dose stay in the body) came out at 75 min; the Tmax (in general, the time from dosing to the highest level) is 19.8 min; the half-life (in general, how long it takes for the measured level to halve) was 70.8 min.

For `N#CCC1(n2cc(-c3ncnc4[nH]ccc34)cn2)CCC(C(F)(F)F)CC1` (centres unmarked) [Compound 3], the pIC50 (in general, the IC50 on a negative log10 scale, so that one unit is a factor of ten) at JAK3 was 6.82.

`N#CCC(C1CCC(F)(F)CC1)n1cc(-c2ncnc3[nH]ccc23)cn1` (centres unmarked) [Compound 4]: the pIC50 on JAK3 was 6.40.

Regarding `N#CCC(C1CCC(C(F)(F)F)CC1)n1cc(-c2ncnc3[nH]ccc23)cn1` (centres unmarked) [Compound 5], on JAK3, the pIC50 was 6.31. In addition, in the data set “in vivo” (10 mg/kg), the AUC(0-inf) was 2000 ng·h/mL, the AUC(0-t) was determined as 1980 ng·h/mL, the Cmax (usually the peak of the concentration-time curve) stood at 1410 ng/mL and the MRT inf came out at 78.6 min. Also, in the data set “in vivo” (10 mg/kg), the MRT last came out at 73.2 min, the Tmax amounted to 15 min and the half-life was 81.6 min.

In the case of `N#CC[C@@H](CCC(F)(F)F)n1cc(-c2ncnc3[nH]ccc23)cn1` [Compound 6-1], at JAK3, the pIC50 was 6.51. In the data set “in vivo” (10 mg/kg), the AUC(0-inf) was 9240 ng·h/mL, the AUC(0-t) is 9230 ng·h/mL, the Cmax is 6320 ng/mL and the MRT inf turned out to be 69 min. Besides, in the data set “in vivo” (10 mg/kg), the MRT last stood at 68.4 min, the Tmax is 15 min and the half-life was 50.4 min.

`N#CC[C@H](CCC(F)(F)F)n1cc(-c2ncnc3[nH]ccc23)cn1` [Compound 6-2] had a pIC50 at JAK3 of 6.94. Also, in “in vivo” (10 mg/kg), the AUC(0-inf) came to 4770 ng·h/mL, the AUC(0-t) turned out to be 4760 ng·h/mL, the Cmax was 6770 ng/mL and the MRT inf is 36.6 min. In addition, in “in vivo” (10 mg/kg), the MRT last was found to be 36 min, the Tmax stood at 4.8 min and the half-life is 44.4 min.

For `N#CCC(C1CC(F)(F)C1)n1cc(-c2ncnc3[nH]ccc23)cn1` (centres unmarked) [Compound 7], the pIC50 against JAK3 is 6.32. In the data set “in vivo” (10 mg/kg), this compound came in with a total exposure AUC(0-inf) of 1660 ng·h/mL, an AUC(0-t) of 1660 ng·h/mL, a Cmax of 3190 ng/mL and an MRT inf of 30.6 min. In addition, in “in vivo” (10 mg/kg), the MRT last was determined as 29.4 min, the Tmax stood at 4.8 min and the half-life was 89.4 min.

As for `CC(C)(C(CC#N)n1cc(-c2ncnc3[nH]ccc23)cn1)C(F)(F)F` (centres unmarked) [Compound 8], on JAK3, the pIC50 is 6.38.

On to `N#CCC(n1cc(-c2ncnc3[nH]ccc23)cn1)C1(C(F)(F)F)CCC1` (centres unmarked) [Compound 9], for which, at JAK3, the pIC50 was 6.40.

Turning to `N#CC[C@H](C1CCCC1)n1cc(-c2ncnc3[nH]ccc23)cn1` [Ruxolitinib, reference compound], in “in vivo” (5 mg/kg), the AUC(0-inf) came to 580 ng·h/mL, the AUC(0-t) amounted to 578 ng·h/mL, the highest level (Cmax) was 893 ng/mL and the MRT inf came to 42.6 min. Further, in “in vivo” (5 mg/kg), the MRT last came out at 42 min, the Tmax was 7.8 min and the half-life was 30 min.

The values are drawn from US20250136608A1, “COMPOUNDS CONTAINING A GEM-DIFLUORIDE GROUP AND PREPARATION METHOD AND USE THEREOF” (CGENETECH (SUZHOU, CHINA) CO., LTD, priority 2022, published 2025).
